SMILES strings stand for the structures. In brackets after ≈: the same amount, converted by molar mass.

The test system of assay [1] is Staphylococcus aureus. As to the kind of experiment: Antimicrobial activity against methicillin-resistant Staphylococcus aureus incubated for 18 hrs by Agar dilution method. The assay is classed as functional. On the technique in general: In agar dilution, organisms are placed on agar that contains the substance at set levels.
Assay [2] relates to Staphylococcus aureus. Kind of assay: Antibacterial activity against methicillin-resistant Staphylococcus aureus assessed as inhibition of microbial growth. The assay is classed as functional.
The test system of assay [3] is Staphylococcus aureus. As to the kind of experiment: Antimicrobial activity against methicillin-resistant Staphylococcus aureus. The assay is classed as functional, organism-based.
Assay [4] concerns Staphylococcus aureus. As to the kind of experiment: Antimicrobial activity against methicillin-resistant Staphylococcus aureus incubated for 18 hrs by Alamar blue staining based analysis. The assay is classed as functional. In general terms: The colour change of resazurin is a common sign of viable cells or microbes.
For assay [5], the system named is Staphylococcus aureus. Kind of assay: Antimicrobial activity against methicillin-resistant Staphylococcus aureus assessed as inhibition of microbial growth. The assay is classed as functional.
Assay [6] relates to Staphylococcus aureus. As to the kind of experiment: Antimicrobial activity against methicillin-resistant Staphylococcus aureus isolates by agar dilution method. The assay is classed as functional.
The test system of assay [7] is Staphylococcus aureus. As to the kind of experiment: Antibacterial activity against methicillin-resistant Staphylococcus aureus. The assay is classed as functional.
Assay [8] concerns Staphylococcus aureus. As to the kind of experiment: Bactericidal activity against methicillin-resistant Staphylococcus aureus assessed as inhibition of microbial growth. The assay is classed as functional.

One may read the MIC as the lowest concentration found to suppress growth. Turning to `COc1c(N2CCNC(C)C2)c(F)cc2c(=O)c(C(=O)O)cn(C3CC3)c12` (stereo not given) [GATIFLOXACIN], the MIC against Staphylococcus aureus [1] stood at 0.06 µg/mL (≈ 0.16 µM); in the assay with Staphylococcus aureus [2], 0.06 µg/mL; in the assay on Staphylococcus aureus [3], 16 µg/mL (≈ 42.6 µM). Turning to `CNCC1CN(c2ccc3c(=O)c(C(=O)O)cn(-c4ccc(F)cc4F)c3n2)CC1(C)C` (stereo not given), in the assay on Staphylococcus aureus [2], the MIC turned out to be 0.015 µg/mL. The molecule `COc1cccc(O/N=C2/CCN(c3c(F)cc4c(=O)c(C(=O)O)cn(C5CC5)c4c3OC)CC2N)c1OC` (stereo not given) came in with an MIC against Staphylococcus aureus [4] of 0.008 µg/mL (≈ 0.0148 µM). As for `O=C(O)c1cn(C2CC2)c2c(c1=O)C=C(F)C1N=NC(c3ccc(Br)cc3)=CN21` (stereo not given), the MIC in the assay with Staphylococcus aureus [5] is 0.25 µg/mL. In the assay with Staphylococcus aureus [6], `Cc1ccc(NC2CN(c3c(F)cc4c(=O)c(C(=O)O)cn(C5CC5)c4c3F)C2)cc1` yielded an MIC of 0.016 µg/mL (≈ 0.0376 µM).

For the molecule `CC1(C)CN(c2ccc3c(=O)c(C(=O)O)cn(-c4ccc(F)cc4F)c3n2)CC1CN` (stereo not given), the MIC in the assay on Staphylococcus aureus [2] worked out at 0.015 µg/mL. As to `COc1c(N2CC/C(=N/Oc3ccc(Cl)cc3)C(N)C2)c(F)cc2c(=O)c(C(=O)O)cn(C3CC3)c12` (stereo not given), inhibition of growth in the assay with Staphylococcus aureus [4] (MIC) required 0.008 µg/mL (≈ 0.0155 µM). Take `CC1(C)CN(c2ccc3c(=O)c(C(=O)O)cn(C4CC4)c3n2)CC1CN` (stereo not given): the MIC in the assay with Staphylococcus aureus [2] came to 0.015 µg/mL. In the assay on Staphylococcus aureus [1], `CC(=O)c1c(N2Cc3nn(C)c(N)c3C2)c(F)cc2c(=O)c(C(=O)O)cn(C3CC3)c12` gave a minimal inhibitory concentration (MIC) of 0.125 µg/mL (≈ 0.294 µM).

Consider `O=C(O)c1cn(C2CC2)c2c(c1=O)C=C(F)C1N=NC(c3ccc([N+](=O)[O-])cc3)=CN21` (stereo not given), for which the MIC in the assay with Staphylococcus aureus [5] amounted to 0.25 µg/mL. With `COc1cc(Br)ccc1O/N=C1/CCN(c2c(F)cc3c(=O)c(C(=O)O)cn(C4CC4)c3c2OC)CC1N` (stereo not given), the MIC against Staphylococcus aureus [4] was 0.008 µg/mL (≈ 0.0136 µM). For the molecule `O=C(O)c1cn(C2CC2)c2c(c1=O)C=C(F)C1N=NC(c3cccc([N+](=O)[O-])c3)=CN21` (stereo not given), the MIC in the assay with Staphylococcus aureus [5] was 0.25 µg/mL. Consider `COc1c2c(cc(F)c1N1C[C@H]3CCCN(C[C@@H](O)Cn4cc([N+](=O)[O-])nc4C)[C@H]3C1)C(=O)C(C(=O)O)=CC2C1CC1` (stereo not given in full), for which the MIC against Staphylococcus aureus [3] is 2 µg/mL (≈ 3.43 µM).

On to `COc1cccc(O/N=C2/CCN(c3c(F)cc4c(=O)c(C(=O)O)cn(C5CC5)c4c3OC)CC2N)c1` (stereo not given), for which the MIC with Staphylococcus aureus [4] is 0.008 µg/mL (≈ 0.0157 µM). On the same count and under the same terms, the figure for `CNC1CCCN(c2c(F)cc3c(=O)c(C(=O)O)cn(C4CC4)c3c2OC)C1` (stereo not given) [BALOFLOXACIN] is 4 µg/mL (≈ 10.3 µM). In the case of `O=C(O)c1cn(C2CC2)c2c(c1=O)C=C(F)C1N=NC(c3cccc(Cl)c3)=CN21` (stereo not given), the MIC with Staphylococcus aureus [5] is 0.25 µg/mL.

Molecule `COc1c(N2CC/C(=N/Oc3ccc(F)cc3)C(N)C2)c(F)cc2c(=O)c(C(=O)O)cn(C3CC3)c12` (stereo not given) came in with an MIC in the assay with Staphylococcus aureus [4] of 0.008 µg/mL (≈ 0.016 µM). In the assay with Staphylococcus aureus [6], `O=C(O)c1cn(C2CC2)c2c(F)c(N3CC(Nc4ccccc4)C3)c(F)cc2c1=O` displayed an MIC of 0.016 µg/mL (≈ 0.0389 µM). In the assay with Staphylococcus aureus [7], `COc1c(-n2cc3ccccc3c2)c(F)cc2c(=O)c(C(=O)Nc3nccs3)cn(C3CC3)c12` gave an MIC above 201 µg/mL. `CCn1cc(C(=O)O)c(=O)c2cc(F)c(N3Cc4n[nH]c(N)c4C3)c(F)c21` came in with an MIC against Staphylococcus aureus [1] of 0.125 µg/mL (≈ 0.333 µM). `CCO/N=C1\CCN(c2nc3c(cc2F)c(=O)c(C(=O)O)cn3C2CC2)CC1(C)CN` (stereo not given) came in with an MIC with Staphylococcus aureus [3] of 8 µg/mL (≈ 18.5 µM). On to `Cn1nc2c(c1N)CN(c1nc3c(cc1F)c(=O)c(C(=O)O)cn3C1CC1)C2`, for which it took 0.125 µg/mL (≈ 0.325 µM) to inhibit growth against Staphylococcus aureus [1] (MIC). Molecule `COc1c(N2CC/C(=N/Oc3ccc(C)c(C)c3)C(N)C2)c(F)cc2c(=O)c(C(=O)O)cn(C3CC3)c12` (stereo not given) showed an MIC with Staphylococcus aureus [4] of 0.008 µg/mL (≈ 0.0157 µM). In the assay on Staphylococcus aureus [6], `COc1ccc(NC2CN(c3c(F)cc4c(=O)c(C(=O)O)cn(C5CC5)c4c3F)C2)cc1` came in with an MIC of 0.16 µg/mL (≈ 0.362 µM). For orientation: MBC means the smallest concentration meeting the test's criterion for killing. Regarding `COc1cc(OC)cc(C(=O)N2CCN(C(=O)N3CCN(c4ccc5c(=O)c(C(=O)O)cn(C6CC6)c5c4)CC3)CC2)c1`, the MBC in the assay on Staphylococcus aureus [8] was at least 128 µg/mL. For the same molecule, in the assay on Staphylococcus aureus [5], the MIC was below 0.016 µg/mL. As to `CC(=O)c1c(N2CC(CN)C(C)(C)C2)cc(N)c2c(=O)c(C(=O)O)cn(C3CC3)c12` (stereo not given), the MIC with Staphylococcus aureus [2] came out at 0.015 µg/mL. In the assay on Staphylococcus aureus [6], `O=C(O)c1cn(C2CC2)c2c(F)c(N3CC(N(Cc4ccccc4)Cc4ccccc4)C3)c(F)cc2c1=O` had an MIC of 0.016 µg/mL (≈ 0.031 µM). As to `COc1ccccc1C1=CN2c3c(c(=O)c(C(=O)O)cn3C3CC3)C=C(F)C2N=N1` (stereo not given), the MIC with Staphylococcus aureus [5] is 0.25 µg/mL. `O=C(O)c1cn(C2CC2)c2c(F)c(N3CC(Nc4ccc(Cl)cc4)C3)c(F)cc2c1=O` gave an MIC against Staphylococcus aureus [6] of 0.016 µg/mL (≈ 0.0359 µM).

In the case of `CNCC1CN(c2ccc3c(=O)c(C(=O)O)cn(C4CC4)c3n2)CC1(C)C` (stereo not given), the MIC with Staphylococcus aureus [2] is 0.015 µg/mL. For the molecule `COc1c(N2C[C@@H]3CCCN[C@@H]3C2)c(F)cc2c(=O)c(C(=O)O)cn(C3CC3)c12` [MOXIFLOXACIN], inhibition of growth against Staphylococcus aureus [1] (MIC) required 0.06 µg/mL (≈ 0.149 µM). `COc1cc(OC)cc(O/N=C2/CCN(c3c(F)cc4c(=O)c(C(=O)O)cn(C5CC5)c4c3OC)CC2N)c1` (stereo not given) displayed an MIC with Staphylococcus aureus [4] of 0.008 µg/mL (≈ 0.0148 µM). As for `COc1ccc(O/N=C2/CCN(c3c(F)cc4c(=O)c(C(=O)O)cn(C5CC5)c4c3OC)CC2N)cc1` (stereo not given), inhibition of growth with Staphylococcus aureus [4] (MIC) required 0.008 µg/mL (≈ 0.0157 µM). For `Nc1[nH]nc2c1CN(c1c(F)cc3c(=O)c(C(=O)O)cn(CCF)c3c1F)C2`, the MIC against Staphylococcus aureus [1] amounted to 0.125 µg/mL (≈ 0.318 µM). With `O=C(O)c1c[nH]c2cc(N3CCN([C@@H]4O[C@H](CO)[C@H](O)[C@H](O)[C@H]4O)CC3)c(F)cc2c1=O`, the MIC with Staphylococcus aureus [5] is 0.5 µg/mL.

`Cn1nc2c(c1N)CN(c1c(F)cc3c(=O)c(C(=O)O)cn(CCF)c3c1F)C2`: the MIC in the assay with Staphylococcus aureus [1] came to 0.125 µg/mL (≈ 0.307 µM).

With `CNCC1CN(c2ccc3c(=O)c(C(=O)O)cn(C4CC4)c3c2C(C)=O)CC1(C)C` (stereo not given), in the assay on Staphylococcus aureus [2], the MIC came to 0.015 µg/mL.

These data come from ChEMBL document CHEMBL5244218, “Quinolone derivatives and their activities against methicillin-resistant Staphylococcus aureus (MRSA)” (Eur J Med Chem, 2018).
